# Assay: Corn greenhouse trial: uptake of Compound 2 into leaves from coated seeds
# Settings: corn (maize), in vivo
# Procedure: Plant leaves were macerated using a Geno/Grinder 2000 bead beater homogenizer (SPEX CertiPrep, Metuchen, N.J., USA), and then acetonitrile (˜5 mL/g of leaf tissue) was added. The mixture was further shaken for 1 minute using the Geno/Grinder homogenizer, and then centrifuged. The acetonitrile extract supernatant was analyzed by high performance liquid chromatography with tandem mass spectrometry detection (HPLC/MS/MS) using a Waters (Milford, Mass. USA) Alliance HT2795 chromatograph and Zorbax SB C18 (2.1×50 mm, 5 microns) column eluted with mixtures of water and acetonitrile containing 0.1% (volume/volume) of formic acid, with detection by a Waters Quattro Micro API Mass Spectrometer using electrospray ionization (ESI+). Standard solutions of Compound 1 and Compound 2 were prepared by adding measured amounts of stock solutions of Compound 1 or Compound 2 in acetonitrile or tetrahydrofuran to acetonitrile extracts of leaves from plants grown from untreated seeds.
# For corn and Compound 2, a 1:1 weight ratio of nonionic fatty alcohol ethoxylate with Compound 2 was prepared with each additive by mixing the appropriate amount of either 16.7 wt % or 20.0 wt % solution in water of the nonionic fatty alcohol ethoxylate with 1.0 g of Compound 2.
# Into a FlackTek™ Max 100 disposable plastic cup were placed 35.0 grams (100 seeds) of corn seeds. […]
smiles,measurement,value
"CNC(=O)c1cc(Cl)cc(C)c1NC(=O)c1cc(Br)nn1-c1ncccc1Cl [Compound 2, 3-bromo-N-[4-chloro-2-methyl-6-[(methylamino)carbonyl]phenyl]-1-(3-chloro-2-pyridinyl)-1H-pyrazole-5-carboxamide]",Uptake microgram/g of leaf,0.42 microgram/g of leaf
